Read-outs that look alike come from different tables or passages of the source.
Experiments:
[1] = Static PET image quantification of tissue uptake at 60 min (last frame of dynamic scan); assay type: in vivo; details: female, athymic nude, mouse, iv, 3.7 MBq, total radioactivity, tail-vein injection ~3.7 MBq, static PET image at 1 h, mean ± SD, n = 4/group
Experimental: The U87MG human glioblastoma tumor model, which has been documented to express high level of integrin αvβ3 [32], was selected for PET imaging. The U87MG cells obtained from ATCC (Manassas, VA) were cultured in DMEM medium supplemented with 10% fetal bovine serum (FBS), 100 IU/mL penicillin, and 100 µg/mL streptomycin (Invitrogen), and in a humidified atmosphere containing 5% CO2 at 37°C. The xenografted model was established by inoculation of 5×10^6 cells into the left shoulder of each female athymic nude mouse at 5–6 weeks of age (Harlan Laboratories). Tumor growth was monitored by caliper measurements of perpendicular axes of the tumor three times a week after the tumors are palpable. The tumor volume was determined as the formula: V = a×(b^2)/2, where a and b are the length and width of each tumor, respectively, in mm. The U87MG xenografted mice underwent PET imaging when the tumor volume reached about 300 mm^3 (about 3 weeks after inoculation). This study was approved by the NIH Clinical Center Animal Care and Use Committee (ACUC). Moreover, all mice were maintained in a specific pathogen-free facility in accordance with the requirements of the ACUC.
(§1) Dynamic PET data acquisition was performed using an Inveon microPET scanner (Siemens Medical Solutions). With the assistance of the Inveon system's positioning laser, U87MG tumor-bearing mouse was placed with its tumor located at the center of field of view (FOV), where the highest imaging sensitivity can be achieved. […] During the acquisition period, a thermostat-controlled thermal heater maintained the body temperature of mice. PET images were reconstructed with 2 iterations of 3-dimensional ordered-subsets expectation maximum (3D OSEM) with 14 subsets, followed by 18 iterations of maximum a posteriori (MAP) algorithm with a smoothing parameter of 0.1 (frame rates: 10×30 s, 5×60 s, 5×120 s and 10×240 s). No attenuation correction was performed in this study.
(§2) In the dynamic PET image analysis, regions of interest (ROIs) were measured with the Inveon Research Workplace (IRW) 3.0 software. ROI was determined by manually superimposing the ellipsoid volume of interest (VOI) to the target tissue on the last frame of the entire 60-min dynamic image sequence. Then a threshold of 30% maximum was set to screen the voxels with lower values in the entire VOI because of possible tumor heterogeneity and shape irregularity. The time–activity curves were derived by superimposing the same VOI on each time frame of the entire 60-min dynamic image sequence and the value of each time point represents the overall concentration of radioactivity in the tissue. The activity concentrations were determined by the mean pixel intensity within each VOI, which were converted to µCi/ml using a calibration constant. Assuming the tissue density of 1 g/ml, the ROI activity was converted to µCi/g and normalized as percent injected dose per gram (%ID/g). The tissue uptake quantification of static scan at 60 min was determined from the last frame of dynamic images. The arterial blood input function was estimated by drawing a VOI in the region of left ventricle on the reconstructed PET image at the 0.5 min time point (the second frame of dynamic PET image series). The region of muscle contralateral to the tumor was selected as the reference tissue.

U87MG tumor-bearing mice = experiment: Logan graphical analysis with image-derived input function of 60-min dynamic PET: volumes of distribution; assay type: in vivo, mouse; details: mean ± SD, n = 4/group
Experimental: as §1, §2
Kinetic analysis of regional TACs was performed based on two-tissue (three-compartment) and one-tissue (two-compartment) model (Fig. 2). The three-compartment model consists of unmetabolized radiotracer in arterial blood plasma (Cp), free or non-specific binding tracer in interstitial and intracellular space (Ct), and tracer bound specifically to integrin (Cm). Both Ct and Cm occupy the same physical volume. The ROI(t) represents the sum of radioactivity from all compartments and includes the plasma volume fraction. Similarly, the two-compartment model describes RGD tracer kinetics using muscle as reference tissue and Ctref represents free (non-specific binding) tracer in the reference tissue (muscle) region. Generally speaking, kinetic parameters K1 [ml/g/min], k2 [1/min], k3 [1/min], k4 [1/min] represent the transport or binding rates of plasma perfusion into tissue, clearance from plasma, specific binding and dissociation, respectively.
Based on Logan plot shown in Eq. 1 [28], [33], the ratio between the integral of Cp(t) and the instantaneous value of ROI(t), and the ratio between the integral and the instantaneous value of ROI(t) become linearly related when the exchange between the target tissue and plasma reaches an equilibrium (t>t*). [drawing 1] (1) DV denotes the distribution volume and can be easily calculated from the linear regression. DV is a measure of the capacity of tissue to bind a particular tracer and can be regarded as the sum of specific (VS) and nonspecific distribution (VND). [drawing 2] (2) [drawing 3] (3) Total volume of distribution is defined in equation 4. [drawing 4] (4) K1, k2, k3, and k4 are calculated by linear fitting to 60-min dynamic PET data.

[2] = kidneys, U87MG tumor-bearing mice, read-out: Tissue uptake, Kidneys
[3] = liver, U87MG tumor-bearing mice, read-out: Tissue uptake, Liver
[4] = muscle, U87MG tumor-bearing mice, read-out: Tissue uptake, Muscle
[5] = tumor (U87MG xenograft), U87MG xenograft, female athymic nude mice, read-out: Tissue uptake, Tumor

SMILES | tissue uptake at 1 h [1, 2] [%ID/g] | tissue uptake at 1 h [1, 3] [%ID/g] | tissue uptake at 1 h [1, 4] [%ID/g] | Volume of Distribution (VT), Kidneys (U87MG tumor-bearing mice) | Volume of Distribution (VT), Liver (U87MG tumor-bearing mice) | Volume of Distribution (VT), Muscle (U87MG tumor-bearing mice) | Volume of Distribution (VT), Tumor (U87MG tumor-bearing mice) | tissue uptake at 1 h [1, 5] [%ID/g]
N=C(N)NCCC[C@@H]1NC(=O)[C@H](CCCCNC(=O)CC[C@H](NC(=O)COCCOCCOCCNC(=S)Nc2ccc(C[C@H]3CN(CC(=O)O)CCN(CC(=O)O)CCN3CC(=O)O)cc2)C(=O)NCCCC[C@@H]2NC(=O)[C@@H](Cc3ccc(O)cc3)NC(=O)[C@H](CC(=O)O)NC(=O)CNC(=O)[C@H](CCCNC(=N)N)NC2=O)NC(=O)[C@@H](Cc2ccc(O)cc2)NC(=O)[C@H](CC(=O)O)NC(=O)CNC1=O [[^18F]AlF-NOTA-PRGD2] [listing 1 of 2 here] | 4.67 ± 1.08 | 1.21 ± 0.54 | 0.53 ± 0.11 |  |  |  |  | 
N=C(N)NCCC[C@@H]1NC(=O)[C@H](CCCCNC(=O)CC[C@H](NC(=O)COCCOCCOCCNC(=S)Nc2ccc(C[C@H]3CN(CC(=O)O)CCN(CC(=O)O)CCN3CC(=O)O)cc2)C(=O)NCCCC[C@@H]2NC(=O)[C@@H](Cc3ccc(O)cc3)NC(=O)[C@H](CC(=O)O)NC(=O)CNC(=O)[C@H](CCCNC(=N)N)NC2=O)NC(=O)[C@@H](Cc2ccc(O)cc2)NC(=O)[C@H](CC(=O)O)NC(=O)CNC1=O [[^18F]AlF-NOTA-PRGD2] [listing 2 of 2 here] |  |  |  | 5.24±0.24 | 1.23±0.085 | 0.53±0.086 | 2.65±0.34 | 

Second part, the compound after the results:

tissue uptake at 1 h [1, 2] [%ID/g] | tissue uptake at 1 h [1, 3] [%ID/g] | tissue uptake at 1 h [1, 4] [%ID/g] | Volume of Distribution (VT), Kidneys (U87MG tumor-bearing mice) | Volume of Distribution (VT), Liver (U87MG tumor-bearing mice) | Volume of Distribution (VT), Muscle (U87MG tumor-bearing mice) | Volume of Distribution (VT), Tumor (U87MG tumor-bearing mice) | tissue uptake at 1 h [1, 5] [%ID/g] | SMILES
2.78 ± 0.58 | 1.1 ± 0.18 | 0.36 ± 0.089 | 4.10±0.27 | 0.97±0.14 | 0.44±0.071 | 2.35±0.22 | 2.91 ± 0.35 | CC(F)C(=O)NCCOCCOCCOCC(=O)N[C@@H](CCC(=O)NCCCC[C@@H]1NC(=O)[C@@H](Cc2ccc(O)cc2)NC(=O)[C@H](CC(=O)O)NC(=O)CNC(=O)[C@H](CCCNC(=N)N)NC1=O)C(=O)NCCCC[C@@H]1NC(=O)[C@@H](Cc2ccc(O)cc2)NC(=O)[C@H](CC(=O)O)NC(=O)CNC(=O)[C@H](CCCNC(=N)N)NC1=O (some centres unmarked) [[^18F]FPPRGD2, reference compound]
 |  |  |  |  |  |  | 2.42 ± 0.56 | N=C(N)NCCC[C@@H]1NC(=O)[C@H](CCCCNC(=O)CC[C@H](NC(=O)COCCOCCOCCNC(=S)Nc2ccc(C[C@H]3CN(CC(=O)O)CCN(CC(=O)O)CCN3CC(=O)O)cc2)C(=O)NCCCC[C@@H]2NC(=O)[C@@H](Cc3ccc(O)cc3)NC(=O)[C@H](CC(=O)O)NC(=O)CNC(=O)[C@H](CCCNC(=N)N)NC2=O)NC(=O)[C@@H](Cc2ccc(O)cc2)NC(=O)[C@H](CC(=O)O)NC(=O)CNC1=O [[^68Ga]Ga-NOTA-PRGD2, metal not drawn]
 |  |  | 3.37±0.56 | 1.24±0.11 | 0.57±0.064 | 2.07±0.12 |  | N=C(N)NCCC[C@@H]1NC(=O)[C@H](CCCCNC(=O)CC[C@H](NC(=O)COCCOCCOCCNC(=S)Nc2ccc(C[C@H]3CN(CC(=O)O)CCN(CC(=O)O)CCN3CC(=O)O)cc2)C(=O)NCCCC[C@@H]2NC(=O)[C@@H](Cc3ccc(O)cc3)NC(=O)[C@H](CC(=O)O)NC(=O)CNC(=O)[C@H](CCCNC(=N)N)NC2=O)NC(=O)[C@@H](Cc2ccc(O)cc2)NC(=O)[C@H](CC(=O)O)NC(=O)CNC1=O [[^68Ga]Ga-NOTA-PRGD2] [metal not drawn]
